The values below come from PubChem BioAssay (NCI).

“And” between values parts separate entries of the source, which are not always exact repeats. Equal entries are not always repeated.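 Results reflect a 48-hour exposure of cells in 96-well plates to compound at five concentrations. GI50 = concentration required for 50% inhibition of growth. At the TGI there is no net growth.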 Where only a bound is given, the exact number is not on record here.

Common to all, as to assay: inhibition of tumour cell growth, NCI panel, 48 h
Assay [1] deals with MCF7 breast.
The subject of assay [2] is MDA-MB-231 breast.
The test system of assay [3] is MOLT-4 leukemia.
In assay [4] the test system is NCI-H23 lung.
Assay [5] concerns NCI-H460 lung.
Assay [6] concerns RPMI-8226 leukemia.
Assay [7] concerns SF-268 CNS.
Assay [8] has as its system SNB-19 CNS.
The test system of assay [9] is T-47D breast.
Assay [10] relates to UACC-257 melanoma.

As to `COC(=O)[C@H](CCSC)NC(=O)c1ccc(CNC(=O)/C(C)=C/c2ccccc2)cc1`, the TGI in assay [1], in assay [2], in [3], in [4], in assay [5] and in assay [6] was over 100 µM in each case. The TGI in assay [7] is 70.1 µM; in assay [8] it was 58.2 µM; in assay [9], over 100 µM; in assay [10] it was 52.7 µM.

On to `CN(C)CCNc1nc2c(no[n+]2[O-])c2ccccc12`, for which the TGI was over 100 µM in assay [1]; 34.3 µM in assay [2]; 95.8 µM in assay [3]; over 100 µM in [4]; over 100 µM in assay [5]; over 100 µM in assay [6]. Besides, the TGI in assay [7] is over 100 µM; in assay [8], 79 µM; in assay [9], over 100 µM; in [10], 34.1 µM.

Regarding `CCCC1(N)CC(OC)OC(C)C1O` (configuration not stated), the TGI in [1], in [2], in [3], in assay [4], in assay [5] and in assay [6] was over 100 µM in each case. Besides, the TGI in assay [7], in assay [8], in [9] and in [10] was over 100 µM throughout.

As to `Cc1ccc2c(=O)c(-c3n[nH]c(=S)s3)c[nH]c2n1`, the TGI in [1], in assay [2], in assay [3], in [4], in assay [5] and in assay [6] was over 100 µM in each case. The TGI in assay [7], in assay [8], in assay [9] and in assay [10] was over 100 µM each time.

Consider `CCOP(=O)(OCC)C(Nc1ccc(F)cc1)c1ccccc1` (configuration not stated), for which the TGI in [1], in assay [2], in assay [3], in assay [4], in assay [5] and in assay [6] was over 100 µM in each case. In addition, the TGI in assay [7], in assay [8], in assay [9] and in assay [10] was over 100 µM in each case.

Take `OC(CN1CCCCC1)c1ccc(/C=C/c2ccc(Cl)cc2)cc1` (configuration not stated): the TGI in [1], in assay [2], in assay [3], in assay [4], in assay [5] and in [6] was over 100 µM in each case. The TGI in assay [7] was over 100 µM; in assay [8] it was over 100 µM; in assay [9], over 100 µM; in assay [10], 46.7 µM.

For `C=CCC(CNC(=O)OCc1ccccc1)OC(=O)OCc1ccccc1` (configuration not stated), the TGI was over 100 µM in assay [1]; over 100 µM in [2]; over 100 µM in assay [3]; over 100 µM in [4]; over 100 µM in assay [5]; 68.1 µM in [6]. The TGI in assay [7], in assay [8], in assay [9] and in assay [10] was over 100 µM each time.

Regarding `Nc1ccc(-c2nc3ccccc3s2)cc1Br`, the TGI in assay [1], in [2], in assay [3], in assay [4], in assay [5] and in assay [6] was over 100 µM each time. Moreover, the TGI in [7], in assay [8], in [9] and in assay [10] was over 100 µM in each case.

`CC1CC[C@@]2(OC1)OC1C[C@H]3[C@@H]4CCC5CC(O)CC[C@]5(C)[C@H]4C/C(=N\N(C)C)[C@]3(C)C1[C@@H]2C` (some centres not stated): the TGI was over 100 µM in assay [1]; 50.2 µM in [2]; over 100 µM in [3]; 42.6 µM in assay [4]; over 100 µM in assay [5]; over 100 µM in assay [6]. Further, the TGI in assay [7] is 99.4 µM; in [8], 88.4 µM; in assay [9] it was over 100 µM; in assay [10], over 100 µM.

With `CC[C@H](C)C1=C(OC(C)=O)[N@+]2([O-])Oc3ccc(-c4c(OC(C)=O)c(OC(C)=O)c(-c5ccc(OC(C)=O)cc5)c(OC(C)=O)c4OC(C)=O)cc3O[C@]2([C@@H](C)CC)C(=O)N1OC(C)=O`, the TGI in [1] is over 50 µM; in assay [2] it was over 50 µM; in assay [3], 36 µM; in assay [4] it was over 50 µM; in assay [5] it was over 50 µM; in assay [6], 22.4 µM. The TGI in assay [7] is over 50 µM; in [8], over 50 µM; in assay [9] it was 32 µM; in assay [10] it was over 50 µM.

Turning to `CC(=O)C1(O)Cc2c(O)c3c(c(O)c2C(OC2CC(N)C(O)C(C)O2)C1)C(=O)c1ccccc1C3=O` (configuration not stated), the TGI in [1] is 1.5 µM; in [2], 1.22 µM; in assay [3], 0.0122 µM and < 0.109 µM; in assay [4], 0.12 µM and 0.046 µM; in [5] it was 0.0836 µM and 0.0123 µM; in [6], 0.35 µM and 0.0968 µM. Besides, the TGI in assay [7] was 0.343 µM and 0.233 µM; in assay [8] it was 0.97 µM and 0.156 µM; in assay [9] it was 0.631 µM and 0.219 µM; in assay [10], 0.451 µM and 0.324 µM. The GI50 in assay [2] was 94.8 nM; in [3], 1.82 nM; in [4] it was under 12 nM; in [6], 30.5 nM and < 13.1 nM; in [7], 25.9 nM; in [8], under 12.2 nM. In addition, the figures for the GI50 in assay [9] and in assay [10] were under 14.5 nM and 37.7 nM, respectively.

`CN(C)c1ccc(/C=c2/c3cc([N+](=O)[O-])ccc3n3c2cc(-c2ccccc2)[n+]3C)cc1`: the TGI in assay [1] was 8.07 µM; in assay [2] it was 2.75 µM; in [3], 8.85 µM; in assay [4], over 24.2 µM; in assay [5], 11.7 µM; in assay [6] it was 1.72 µM. In addition, the TGI in [7] stood at 2.86 µM; in assay [8] it was 3.84 µM; in assay [9], 1.81 µM.

For `COc1ccc(N2C(=O)C3CC4=CC(=O)C[C@H]4[C@H]32)cc1` (some centres not stated), the TGI in assay [1], in assay [2], in [3], in assay [4], in [5] and in assay [6] was over 100 µM in each case. In addition, the TGI in [7], in assay [8], in assay [9] and in [10] was over 100 µM throughout.

On to `NCCCC[C@H](N)C(=O)Nc1ccc(-c2nc3ccccc3s2)cc1Cl`, for which the TGI in assay [1] is 9.01 µM; in assay [2], 26.6 µM; in assay [3], over 24.1 µM; in assay [4] it was over 37.6 µM; in assay [5], 13.7 µM; in [7], 25.5 µM. In addition, the values for the TGI in [8], in [9] and in assay [10] were 32.9 µM, 19.4 µM and 32.4 µM, respectively.

Turning to `CCN(CC)CCC(=O)c1ccc(Oc2ccc(F)cc2)cc1`, the TGI in assay [1] was 38.7 µM; in assay [2] it was 31.2 µM; in assay [3], 51.3 µM; in assay [4], 45.9 µM; in assay [6], 56.4 µM; in assay [7] it was 35.5 µM. The TGI in assay [8] was found to be 33.6 µM; in assay [9], 42 µM; in assay [10] it was 34 µM.

Regarding `Cc1ncc([N+](=O)[O-])n1CCNC(=O)CCCCCn1ccnc1[N+](=O)[O-]`, the TGI in [1], in assay [2], in assay [3], in [4], in assay [5] and in [7] was over 100 µM in each case. Moreover, the TGI in assay [8], in assay [9] and in assay [10] was over 100 µM in each case.

As for `COc1ccc2c(c1)-c1[nH]c3ccccc3c1CC2`, the TGI in [1] was determined as 29.7 µM; in assay [2], 33.8 µM; in assay [3], 36.2 µM; in assay [4], 26.9 µM; in assay [5], 29.9 µM; in [6], 71.2 µM. The TGI was 28.4 µM in assay [7], 30.9 µM in [8], 29.1 µM in [9] and 30.8 µM in assay [10].

`Cc1cccc(NC2=NCCO2)c1Cl`: the TGI in assay [1], in [2], in [3], in assay [4], in assay [5] and in assay [6] was over 100 µM each time. The TGI in assay [7], in assay [8], in [9] and in assay [10] was over 100 µM in each case.

As for `CCOC(=O)CC[C@H](N)C(=O)N[C@H](Cc1ccc(N(CCCl)CCCl)cc1)C(=O)OCC`, the TGI in assay [1] was over 47.5 µM; in assay [2], 16.2 µM; in assay [3], 31.5 µM; in assay [4], 4.29 µM; in assay [5], 16.2 µM; in [6] it was over 73.9 µM. The TGI in assay [7] was 11.3 µM; in assay [8], 99 µM; in assay [9], 6.55 µM; in [10] it was over 49.2 µM.

In the case of `COc1ccc(C[C@@H]2OC3(C=CC(=O)C=C3)O[C@H]2Cc2ccc(OC)cc2)cc1`, the TGI in assay [1] worked out at 5.68 µM; in [2] it was 4.15 µM; in assay [3], 2.01 µM; in [4], 3.53 µM; in assay [5], 25.1 µM; in assay [6] it was 0.653 µM. For the same compound, the TGI in [7] was 3.07 µM; in [8], 5.01 µM; in assay [9] it was over 100 µM; in assay [10], 3.28 µM.

`CC(=O)N(CN1C(=O)CCC1C(=O)O)c1ccccc1Cl` (configuration not stated): the TGI in assay [1], in assay [2], in assay [3], in assay [4], in [5] and in [6] was over 100 µM throughout. The TGI in assay [7], in assay [8], in assay [9] and in [10] was over 100 µM in each case.

For `C[N+](C)(N)c1nc(N)c(C#N)c(C#N)c1C#N`, the TGI in [1], in [2], in assay [3], in [4], in [5] and in [6] was over 10 µM throughout. Moreover, the TGI in assay [7], in assay [8] and in assay [9] was over 10 µM each time.

As for `COC(=O)C(Cc1nc2ccccc2[nH]c1=O)C(=O)C(=O)Nc1cc(C(F)(F)F)ccc1Cl` (configuration not stated), the TGI in [1] is 27.4 µM; in assay [2], 52.5 µM; in [3], 48.2 µM; in [4], 30.4 µM; in assay [5], 39.9 µM; in [6], 51.5 µM. Also, the results for the TGI in assay [7], in [9] and in assay [10] were 36.4 µM, 44.7 µM and over 100 µM, respectively.

`C/C=C1\CC(C(=O)OCC)CCCCCCCCCCC1=O` (configuration not stated): the TGI in assay [1], in assay [2], in assay [3], in [4], in [5] and in [7] was over 100 µM each time. Besides, the TGI in [8], in assay [9] and in assay [10] was over 100 µM in each case.

For the compound `CC1(C)CC2C(C1=O)C1(C)CCCC2(C)C1=O` (configuration not stated), the TGI in assay [1], in assay [2], in assay [3], in assay [4], in [5] and in assay [6] was over 100 µM in each case. Further, the TGI in assay [7], in assay [9] and in assay [10] was over 100 µM throughout.

Regarding `C#CCOC(=O)C(N)CCSC` (configuration not stated), the TGI in assay [1], in [2], in assay [3], in [4], in assay [6] and in assay [7] was over 100 µM each time. Moreover, the TGI in assay [9] and in assay [10] was over 100 µM in each case.

On to `C#CCCCC(=O)N(C(=O)CS(=O)CC)c1ccccc1` (configuration not stated), for which the TGI in [1], in assay [2], in [3], in assay [4], in assay [5] and in assay [7] was over 100 µM throughout. In addition, the TGI in assay [8], in [9] and in assay [10] was over 100 µM throughout.
